Results as given in patent publication US8129425B2, “Small organic molecule regulators of cell proliferation” (Curis, Inc., priority 2000, dated 2012).
“Also recorded” adds a separate entry of the source.

Columns and labels:
[1] = system: patched (ptc-lacZ β-galactosidase reporter); test: Ptc-lacZ reporter mice assay (X-gal staining of tissues); type: in vivo
Procedure: Mice with a β-galactosidase transgene (ptc-lacZ mice) under the regulatory control of the patched locus express the β-galactosidase protein in the same cells where the endogenous mouse patched gene is expressed. The β-galactosidase protein can thus be used as a faithful reporter of the expression of the endogenous patched gene.
Ptc-lacZ mice were divided into four treatment groups and were treated with the following compounds or combinations of compounds for four days, beginning on the first day after birth (dipal-Shh=dipalmitoylated Sonic hedgehog):
The vehicle for the agonist was 10% DMSO in PBS (pH 7.2). The agonist was injected from a 4.67 mM stock dissolved in the vehicle solution.
18 hours following the last injections, the mice were sacrificed and the following tissues were collected: skull, kidney, lung, scapula, skin and heart. All tissues were fixed in 0.2% glutaraldehyde, 5 mM EDTA (pH 8.0), 20 mM MgCl2, 100 mM Na2HPO4 for 30 minutes before staining in 1 mg/ml X-gal, 12.5 mM potassium ferrocyanide, 12.5 mM potassium ferricyanide, 2 mM MgCl2, 0.01% deoxycholate, 0.02% NP-40, and 100 mM Na2HPO4 for 30 hours. Tissues were judged for relative intensity and photographed.
FIG. 42: Ptc-lacZ mice were divided into two treatment groups and were treated with the following compounds for three days, beginning on the first day after birth:
The vehicle for the agonist was 10% DMSO in PBS (pH 7.2). The agonist was injected from a 1.0 mM stock dissolved in the vehicle solution.
Eighteen hours following the last injections, the mice were sacrificed and the forelimbs were collected and processed as described above.
In a third experiment, Ptc-lacZ mice were divided into five treatment groups and were treated with the following compounds for four days, beginning on the first day after birth:
The vehicle for the agonist was 10% DMSO in PBS (pH 7.2). The agonist was injected from stocks of 0.3, 0.1 and 0.03 mM dissolved in the vehicle solution.

[2] = system: diabetic neuropathy (nerve conduction, vasa nervorum, NGF); test: Streptozotocin (STZ) diabetic rat model of diabetic neuropathy; type: in vivo
Procedure: Diabetes was induced in male Wistar rats (Charles River, UK or Harlan, San Diego, USA) with an intraperitoneal injection (55 mg/kg) of streptozotocin (STZ; Sigma) given after an overnight fast. The drug was freshly dissolved in sterile saline immediately before injection. Three days later, tail vein blood glucose was measured by a strip-operated reflectance photometer and any STZ-treated rats with blood glucose <15 mmol/l were removed from the study. Rats were group-housed with free access to food and water in a 12 h light/dark cycle. At the end of each study, blood samples were collected from all rats, plasma extracted and plasma glucose levels measured by spectophotometric assay using a commercial kit (Sigma, St. Louis, Mo.). […] Motor nerve conduction velocity (MNCV) was measured from latencies of the compound M waves of the electromyogram in the hindlimb, and sensory nerve conduction velocity (SNCV) was measured from H reflex latencies in the same system. […] Stimulation of the nerve was performed at the sciatic notch and Achilles tendon and evoked electromyograms were recorded from the interosseus muscles of the foot. […] NGF was measured in extracts from segments of sciatic nerve by ELISA as described by P. Fernyhough et al. Human recombinant nerve growth factor replaces deficient neurotrophic support in the diabetic rat. […]

CNC1CCC(N(Cc2ccc(OC)c(-c3ccc(C#N)cc3)c2)C(=O)c2sc3ccccc3c2Cl)CC1 (stereo not shown) [D]
upregulation of hedgehog pathway in forelimbs (β-galactosidase staining) ([1]; 0.1 mg/kg/injection 4X/day, four days): very weak upregulation | upregulation of hedgehog pathway in forelimbs (β-galactosidase staining) ([1]; 0.3 mg/kg/injection 4X/day, four days): greater than that seen with injections of Hh protein at 10 mg/kg/injection | upregulation of hedgehog pathway in forelimbs (β-galactosidase staining) ([1]; 0.9 mg/kg/injection 4X/day, four days): highest levels of upregulation; also recorded: greater than that seen with injections of Hh protein at 10 mg/kg/injection | upregulation of hedgehog pathway in forelimbs (β-galactosidase staining) ([1]; 4 mg/kg/injection 4X/day, three days, absence of dipal-Shh): strong upregulation in the nerves, blood vessels, cartilage, and connective tissue; also recorded: greater than that seen with injections of dipal-Shh at 10 mg/kg/injection | dose dependence of hedgehog pathway upregulation in vivo ([1]; 0.1-0.9 mg/kg/injection 4X/day): dose-responsive manner | blood flow to the damaged nerves (sciatic vasa nervorum) ([2]; laser Doppler perfusion imaging and BS-1 lectin fluorescent imaging): improved | levels of nerve growth factor (NGF) in the sciatic nerve ([2]; rat STZ model): increased levels of nerve growth factor (NGF)
